This passage reports MIC results from ChEMBL document CHEMBL1255399, “Haemophilus influenzae clinical isolates with plasmid pB1000 bearing blaROB-1: fitness cost and interspecies dissemination” (2010).

Common to all, as to format: functional
Assay [1] concerns Haemophilus influenzae. Nature of the assay: Antimicrobial activity against Haemophilus influenzae Rd KW20 by broth microdilution method. Background: In broth dilution the organism is exposed to a series of concentrations in liquid medium.
The test system of assay [2] is Haemophilus influenzae. Nature of the assay: Antimicrobial activity against Haemophilus influenzae Rd KW20 harboring with plasmid pB1000 bearing beta-lactamase ROB-1 by broth microdilution method.
Assay [3] has as its system Haemophilus influenzae. Nature of the assay: Antimicrobial activity against ampicillin resistant nontypeable Haemophilus influenzae isolate BB1050 harboring with plasmid pB1000 bearing beta-lactamase ROB-1 by broth microdilution method.
The test system of assay [4] is Haemophilus influenzae. Nature of the assay: Antimicrobial activity against ampicillin resistant nontypeable Haemophilus influenzae isolate BB1051 harboring with plasmid pB1000 bearing beta-lactamase ROB-1 by broth microdilution method.
The subject of assay [5] is Haemophilus influenzae. Briefly: Antimicrobial activity against ampicillin resistant nontypeable Haemophilus influenzae isolate BB1052 harboring with plasmid pB1000 bearing beta-lactamase ROB-1 by broth microdilution method.
In assay [6] the test system is Haemophilus influenzae. Briefly: Antimicrobial activity against ampicillin resistant serotype-e Haemophilus influenzae isolate BB1053 harboring with plasmid pB1000 bearing beta-lactamase ROB-1 by broth microdilution method.

Values after ≈ are worked out from the molar mass of the structure shown. Bounds are passed on as bounds.

Regarding `C[C@@H](O)[C@H]1C(=O)N2C(C(=O)O)=C(SCCNC=N)C[C@H]12` [IMIPENEM ANHYDROUS], the MIC with Haemophilus influenzae [1] was found to be 0.5 µg/mL (≈ 1.67 µM); in the assay on Haemophilus influenzae [2], 1 µg/mL (≈ 3.34 µM); against Haemophilus influenzae [3], 2 µg/mL (≈ 6.68 µM); against Haemophilus influenzae [4], 0.5 µg/mL (≈ 1.67 µM); in the assay with Haemophilus influenzae [5], 1 µg/mL (≈ 3.34 µM); in the assay with Haemophilus influenzae [6] it was 0.5 µg/mL (≈ 1.67 µM).

For the molecule `CC1(C)S[C@@H]2[C@H](NC(=O)[C@H](N)c3ccccc3)C(=O)N2[C@H]1C(=O)O` [AMPICILLIN], the MIC is at most 0.25 µg/mL in the assay with Haemophilus influenzae [1]; over 128 µg/mL in the assay with Haemophilus influenzae [2]; over 128 µg/mL in the assay with Haemophilus influenzae [3]; over 128 µg/mL in the assay on Haemophilus influenzae [4]; over 128 µg/mL in the assay with Haemophilus influenzae [5]; over 128 µg/mL with Haemophilus influenzae [6].

Take `N[C@@H](C(=O)N[C@@H]1C(=O)N2C(C(=O)O)=C(Cl)CS[C@H]12)c1ccccc1` [CEFACLOR ANHYDROUS]: the MIC in the assay with Haemophilus influenzae [1] amounted to 1 µg/mL (≈ 2.72 µM); against Haemophilus influenzae [2], 64 µg/mL (≈ 174 µM); in the assay on Haemophilus influenzae [3] it was 64 µg/mL (≈ 174 µM); in the assay on Haemophilus influenzae [4], 64 µg/mL (≈ 174 µM); in the assay on Haemophilus influenzae [5], 64 µg/mL (≈ 174 µM); with Haemophilus influenzae [6] it was 64 µg/mL (≈ 174 µM).

In the case of `CO/N=C(\C(=O)N[C@@H]1C(=O)N2C(C(=O)O)=C(COC(C)=O)CS[C@H]12)c1csc(N)n1` [CEFOTAXIME], the MIC against Haemophilus influenzae [1] is at most 0.03 µg/mL; against Haemophilus influenzae [3] it was 0.06 µg/mL (≈ 0.132 µM); in the assay on Haemophilus influenzae [4] it was at most 0.03 µg/mL; in the assay with Haemophilus influenzae [5], at most 0.03 µg/mL; against Haemophilus influenzae [6], at most 0.03 µg/mL.

As for `CC1(C)S[C@@H]2[C@H](NC(=O)[C@H](N)c3ccc(O)cc3)C(=O)N2[C@H]1C(=O)O` [AMOXICILLIN], the MIC was at most 0.5 µg/mL with Haemophilus influenzae [1]; over 64 µg/mL against Haemophilus influenzae [2]; over 64 µg/mL in the assay on Haemophilus influenzae [3]; over 64 µg/mL in the assay with Haemophilus influenzae [4]; over 64 µg/mL against Haemophilus influenzae [5]; over 64 µg/mL in the assay with Haemophilus influenzae [6].

Turning to `CC1(C)S[C@@H]2[C@H](NC(=O)Cc3ccccc3)C(=O)N2[C@H]1C(=O)O` [PENICILLIN G], the MIC was 0.5 µg/mL (≈ 1.5 µM) with Haemophilus influenzae [1]; over 256 µg/mL in the assay with Haemophilus influenzae [2]; over 256 µg/mL with Haemophilus influenzae [3]; over 256 µg/mL against Haemophilus influenzae [4]; over 256 µg/mL in the assay on Haemophilus influenzae [5]; over 256 µg/mL in the assay with Haemophilus influenzae [6].

Take `C=CC1=C(C(=O)O)N2C(=O)[C@@H](NC(=O)/C(=N\OCC(=O)O)c3csc(N)n3)[C@H]2SC1` [CEFIXIME]: the MIC is at most 0.03 µg/mL with Haemophilus influenzae [1]; 0.06 µg/mL (≈ 0.132 µM) against Haemophilus influenzae [2]; 0.06 µg/mL (≈ 0.132 µM) against Haemophilus influenzae [3]; 0.06 µg/mL (≈ 0.132 µM) in the assay on Haemophilus influenzae [4]; at most 0.03 µg/mL against Haemophilus influenzae [5]; 0.06 µg/mL (≈ 0.132 µM) in the assay on Haemophilus influenzae [6].

For `C[C@H]1[C@H](NC(=O)/C(=N\OC(C)(C)C(=O)O)c2csc(N)n2)C(=O)N1S(=O)(=O)O` [AZTREONAM], the MIC in the assay on Haemophilus influenzae [1], in the assay on Haemophilus influenzae [2], against Haemophilus influenzae [3], against Haemophilus influenzae [4], against Haemophilus influenzae [5] and in the assay with Haemophilus influenzae [6] was at most 0.12 µg/mL each time.

Consider `CO/N=C(\C(=O)N[C@@H]1C(=O)N2C(C(=O)O)=C(COC(N)=O)CS[C@H]12)c1ccco1` [CEFUROXIME], for which the MIC in the assay with Haemophilus influenzae [1] was found to be 0.5 µg/mL (≈ 1.18 µM); against Haemophilus influenzae [2] it was 4 µg/mL (≈ 9.43 µM); against Haemophilus influenzae [3], 4 µg/mL (≈ 9.43 µM); in the assay with Haemophilus influenzae [4], 4 µg/mL (≈ 9.43 µM); against Haemophilus influenzae [5] it was 4 µg/mL (≈ 9.43 µM); in the assay with Haemophilus influenzae [6], 4 µg/mL (≈ 9.43 µM).
